Experimental data reported in US20200171022A1, “FLT3 INHIBITORS FOR IMPROVING PAIN TREATMENTS BY OPIOIDS” (INSERM (Institut National de la Santé et da la Recherche …, priority 2017, published 2020).

Legend:
Male Sprague-Dawley rats [1] = test: Potentiation of morphine-induced analgesia and morphine-dose sparing, paw pressure test (Example 4); settings: for pressure exerted on the hindpaw to obtain withdrawal: BDT001 1 mg/kg, morphine 1.5 mg/kg, mean±S.E.M., 6 animals, saline 250±7.4 g
Procedure: (§1) Paw pressure test: Mechanical hyperalgesia was measured as the threshold to a noxious mechanical stimulus. […] Briefly, a constantly increasing pressure is applied to the rat hind paw until vocalization occurs. A Basile analgesimeter (Bioseb, France; stylus tip diameter, 1 mm) was used. A 600-g cut-off value was determined to prevent tissue damage.
To evaluate the group effects of treatments, two-way ANOVA with repeated measurements were performed followed by Dunnett's post-hoc test. Newman-Keul's test was used for multiple comparisons between groups. A difference was accepted as significant if the probability that it occurred by chance alone was less than 5% (P<0.05).

wild-type (Flt3+/+) mice = test: Mechanical pain hypersensitivity after repeated morphine, von Frey test (Example 3); settings: morphine 10 mg/kg twice a day for 4 days, compared to saline
Procedure: Experiments were performed in male mice carrying a homozygous deletion of Flt3 (F1t3KO mice)^24 and their littermates (WT) weighing 25-30 g. […] Animals were maintained in a climate-controlled room on a 12 h light/dark cycle and allowed access to food and water ad libitum. To limit the stress induced by the experimental procedure, the general plan for an experimental phase was as follows: • arrival and housing of the animals: 4 days; • evaluation of nociceptive threshold baseline; • repeated opioid administration and evaluation of treatment effects
Filaments were applied perpendicularly to the plantar surface of the paw. The 50% paw withdrawal threshold was determined in grams by the Dixon nonparametric test. The protocol was repeated until three changes in behavior occurred.
(§2) Data are presented as mean±S.E.M. To evaluate the time-course effects of treatments and individual group comparisons, one-way and two-way ANOVA with repeated measurements were performed followed by Dunnett's post hoc test. Bonferroni's test was used for multiple comparisons between groups. A difference was accepted as significant if the probability that it occurred by chance alone was less than 5% (P<0.05).

Male Sprague-Dawley rats [2] = test: Morphine-induced mechanical pain hypersensitivity and latent pain sensitization, paw pressure test (Example 6); settings: morphine 2 mg/kg twice daily for 4 days; observed on D2, back to baseline on D9
Procedure: Rats were kept under controlled environmental conditions (22° C., 60% relative humidity, 12 h light/dark cycle with lights on at 7:00 A.M., food and water ad libitum). To limit the stress induced by the experimental procedure, the general plan for an experimental phase was as follows: • arrival and housing of the animals: 4 days; • acclimation of the animals for 10 days to the experimental conditions in order to avoid any possibility of measurement bias being induced by stress; • evaluation of nociceptive threshold baseline • repeated opioid administration and evaluation of treatment effects
Mechanical hyperalgesia was measured as the threshold to a noxious mechanical stimulus. […] Briefly, a constantly increasing pressure is applied to the rat hind paw until vocalization occurs. A Basile analgesimeter (Bioseb, France; stylus tip diameter, 1 mm) was used. A 600-g cut-off value was determined to prevent tissue damage.
as §2

Male Sprague-Dawley rats [3] = test: Tolerance to morphine analgesia after chronic morphine treatment, paw pressure test (Example 5); assay type: in vivo, rat; settings: morphine 2 mg/kg s.c. twice daily for 4 days, D0 to D4, control animals
Procedure: Rats were kept under controlled environmental conditions (22° C., 60% relative humidity, 12 h light/dark cycle with lights on at 7:00 A.M., food and water ad libitum). To limit the stress induced by the experimental procedure, the general plan for an experimental phase was as follows: • arrival and housing of the animals: 4 days; • acclimatization of the animals for 10 days to the experimental conditions in order to avoid any possibility of measurement bias being induced by stress; • evaluation of nociceptive threshold baseline • repeated opioid administration and evaluation of treatment effects
as §1
Intrathecal injection was performed via manual lumbar puncture over one minute under anesthesia (isoflurane).
Data are presented as mean±S.E.M. To evaluate the time-course effects of treatments and individual group comparisons, one-way and two-way ANOVA with repeated measurements were performed followed by Dunnett's post hoc test. Bonferroni's test was used for multiple comparisons between groups. […]

SMILES	pressure exerted on the hindpaw to obtain withdrawal (Male Sprague-Dawley rats [1]; 30 min after administration) [g]	morphine-dose sparing effect (Male Sprague-Dawley rats [1]; BDT001 1 mg/kg i.p.) [%]	analgesia by itself (Male Sprague-Dawley rats [1]; BDT001 1 mg/kg i.p. alone, 30 min after administration)	morphine-induced analgesia (area under the curve) (Male Sprague-Dawley rats [1]; morphine 0.5, 1, 1.5 or 2 mg/kg s.c. alone)	nociceptive threshold (mechanical pain hypersensitivity) after repeated morphine (wild-type (Flt3+/+) mice)	nociceptive threshold (pain hypersensitivity) in morphine-treated animals (Male Sprague-Dawley rats [2])	morphine-induced analgesia (percentage of MPE) on repeated morphine administration (Male Sprague-Dawley rats [3])
O=C(Nc1cc(Cl)ccc1O)c1cccc(S(=O)(=O)N2CCCCC2)c1 [BDT001, N-(5-chloro-2-hydroxyphenyl)-3-(piperidin-1-ylsulfonyl)benzamide]	252.5 ± 9.0	30	did not produced analgesia by itself				
CN1CC[C@]23c4c5ccc(O)c4O[C@H]2[C@@H](O)C=C[C@H]3[C@H]1C5 [morphine]	502.5 ± 20.0			induced analgesia in a dose-dependent manner	induced a decrease in the nociceptive threshold	significant decrease in the nociceptive threshold	induced a progressive decrease in morphine-induced analgesia
